Experimental data taken from US12357723B2, “Antimicrobial silver iodate” (Innovotech, Inc., priority 2012, dated 2025).
Like-named read-outs stand apart in the source and are kept apart here.

Key:
[1] = for Grain size: 90° C.
[2] = Ag5IO6 solubility in water and saline, OECD Method (105) flask; assay type: physicochemical
Text: The purpose of this study was to develop a basic understanding of the solubility (and stability) of Ag5IO6 in pure water and 0.9% (physiological saline), following OECD Method (105)—flask.

[3] = Ag5IO6 stability in solvents (isothermal TAM III heat flow, XRD); assay type: physicochemical
Protocol: The purpose of this study was to determine whether or not Ag5IO6 interacts with methanol, tetrahydrofuran, acetone, and acetonitrile. […] of Ag5IO6 was placed in a vial, 2 mL of the solvent was added, and the vial was placed in a TAM III for an isothermal run at room temperature for >24 h with solvent only as the reference. The heat flow was measured. After the run was complete, the solvents were allowed to flash off and the solids collected were submitted to XRD. Samples exposed following essentially the same method for only 18 h were also submitted for XRD

[4] = Basic compatibility of Ag5IO6 with gels (visual, pH, UV-Vis, XRD); assay type: physicochemical
Text: The purpose of this study was to determine whether Ag5IO6 could be incorporated into various gels without reacting with the gels. Ag5IO6 powder was combined with various commercially available hydrogels and then visually examined for stability, along with UV-Vis analysis and x-ray diffraction.
Gels selected: Guardian Laboratories AquaThik™ (Xanthan gum, PEG-180; 3% in water); Lubrajel® RC (Water, glycerin, propylene glycol, polyacrylic acid, sodium polyacrylate, 0.18% methylparaben, 0.02% propylparaben), and Lubrajel® PF (Glycerin, glyceryl acrylate/acrylic acid copolymer); SteriLub™ (unknown composition); BASF Pluronic® F127+Carbowax 600 (Polyoxyethylene-polyoxypropylene block copolymer; 18% Pluronic, 15% Carbowax 600); ConvaTec DuoDerm® Hydroactive® Sterile Gel (pectin, sodium carboxymethylcellulose); MoInlycke Normlgel® (0.9% NaCl, H2O, xanthan gum); Smith & Nephew IntraSite Gel (Water>60%, propylene glycol 10-30%, absorbent polymer<10%-crilanomer, a Graft-T starch copolymer) and SoloSite Gel (Water>60%, glycerol 10-30%, absorbent polymer<10%, allantoin<1%, antiseptic/preservative<1%); carboxymethylcellulose gel (4% in water); Cremophor; and Gelrite (0.4% in water).
For each gel, the samples were mixed in a small glass container with fine Ag5IO6 powder to generate 500 ppm Ag5IO6 in the gels. Each of the above formulations were examined for visual signs of instability, such as dramatic viscosity changes, color changes, release of gas, deposition of precipitate that appears different from the original Ag5IO6, and temperature change during stirring (heat release).
UV-Vis Analysis: Samples were diluted to 1/10th their original concentration. For UV-Vis blanks, control gels (with no Ag5IO6) were prepared as described for each gel, and diluted to 1/10th as well. UV-Vis measurements were performed between 190-500 nm.
pHs of the gel formulations were measured with and without the Ag5IO6 added using pH indicator strips.

[Ag+].[Ag+].[Ag+].[Ag+].[Ag+].[O-][I+]([O-])([O-])([O-])([O-])[O-] [Ag5IO6, pentasilver hexaoxoiodate]
Grain size ([1]; Day 0): 14 Å
Grain size ([1]; Day 14): 62 Å
Grain size ([1]; Day 28): 94 Å
Composition remaining Ag5IO6 ([1]; 672 h): 100%
Shelf life ([1]; room temperature, extrapolated from accelerated storage): > 2 years
Solubility ([2]; ddH2O): 24.41 ± 0.87 µg/mL
pH of solution ([2]; in ddH2O): 8
Solid material converted to Ag metal (XRD) ([2]; in ddH2O, end of experiment): 0.1%
Solid material remaining as Ag5IO6 (XRD) ([2]; in ddH2O, end of experiment): approximately 99.9%
pH of solution ([2]; in saline): 10
Solid material converted to AgCl (XRD) ([2]; in saline, end of experiment): approximately 25%
Solubility ([2]; saline (0.9%)): 0.61 ± 0.05 µg/mL
Rank of solubility in organic solvents [3]: methanol>>THF>acetone>acetonitrile
Onset of significant reaction ([3]; acetonitrile (slower onset), room temperature): about 56 h
Time blended without substantial reaction ([3]; all solvents (methanol, tetrahydrofuran, acetone, acetonitrile), room temperature): < 18 h
Onset of significant reaction ([3]; methanol, room temperature): about 33 h
Onset of significant reaction ([3]; solvent printed as THE, room temperature): about 56 h
Ag5IO6 purity by XRD after mixing into gel ([4]; 500 ppm Ag5IO6 in AquaThik gel): 100%
XRD: reaction of Ag5IO6 with gel ([4]; 500 ppm Ag5IO6 in Cremophor gel): no Ag5IO6 detected by the XRD analysis
XRD: reaction of Ag5IO6 with gel ([4]; 500 ppm Ag5IO6 in DuoDerm hydrogel): remained pure
XRD: reaction of Ag5IO6 with gel ([4]; 500 ppm Ag5IO6 in Gelrite (0.4% in water)): did not react
XRD: reaction of Ag5IO6 with gel ([4]; 500 ppm Ag5IO6 in IntraSite gel): no reaction products
XRD: reaction of Ag5IO6 with gel ([4]; 500 ppm Ag5IO6 in Lubrajel PF): had not reacted
XRD: reaction of Ag5IO6 with gel ([4]; 500 ppm Ag5IO6 in Lubrajel RC): did not react
XRD: reaction of Ag5IO6 with gel ([4]; 500 ppm Ag5IO6 in Normlgel (0.9% NaCl), AgCl found): incompatible under these conditions with this gel for long term storage
Visual signs of instability after addition of Ag5IO6 ([4]; 500 ppm Ag5IO6 in Pluronic F127 plus Carbowax 600, no XRD): undesirable physical changes in the gel
XRD: reaction of Ag5IO6 with gel ([4]; 500 ppm Ag5IO6 in SoloSite gel): no reaction products
Ag5IO6 purity by XRD after mixing into gel ([4]; 500 ppm Ag5IO6 in SteriLub gel): 100%
XRD: reaction of Ag5IO6 with gel ([4]; 500 ppm Ag5IO6 in carboxymethylcellulose gel (4% in water)): not reactive
